In patent US20130217723A1, “Pharmaceutical Composition Combining Tenatoprazole and an Anti-Inflammatory Agent” (priority 2002, published 2013):
Like-named read-outs stand apart in the source and are kept apart here.

Columns and labels:
[1] = patients under treatment; cited from earlier work
[2] = Phase I pharmacokinetic study of oral tenatoprazole, single dose and daily dose for 7 days; type: in vivo, human (Caucasian individuals); conditions: for half-life: human, plasma, oral, depending on the dose (10-80 mg), read-out: mean elimination half-lives
Method: The doses tested were 10, 20, 40 and 80 mg of tenatoprazole.
In this table, the abbreviations employed have the following meanings: • Cmax maximum concentration • Tmax time required to attain maximum concentration • T1/2 elimination half-life • AUC0-t area under the curve, between time 0 and the last measurable concentration.

SMILES | percentage of minor disorders observed in patients: dyspeptic symptoms [1] [%] | percentage of minor disorders observed in patients: gastric pain [1] [%] | percentage of minor disorders observed in patients: nausea [1] [%] | plasma half-life/pump regeneration time ratio ([2]; compared with other proton pump inhibitors) | half-life ([2]; after a single dose) [h] | half-life ([2]; after administration for seven days) [h] | Cmax, AUC0-t and AUC0-inf values versus dose ([2]; single or repeated administration, AUC0-inf calculated by extrapolation)
Cc1ccc(-c2cc(C(F)(F)F)nn2-c2ccc(S(N)(=O)=O)cc2)cc1 [celecoxib] | 4.8 | 4.8 | 2.4 | – | – | – | –
COc1ccc2[nH]c([S+]([O-])Cc3ncc(C)c(OC)c3C)nc2n1 (stereo not shown) [tenatoprazole, 5-methoxy-2-[[(4-methoxy-3,5-dimethyl-2-pyridyl)methyl]sulfinyl]imidazo[4,5-b]pyridine] | – | – | – | notably higher than that seen with other proton pump inhibitors | 5 to 6 | 5 to 9.5 | increased in a linear fashion
